Data taken from PubChem BioAssay (NCI).
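Cells were grown in 96-well plates and exposed to each compound for 48 hours at five concentrations; endpoints were interpolated linearly between bracketing concentrations, or set to the highest concentration if not reached. Here, GI50 denotes the concentration required for 50% inhibition of growth. TGI denotes the concentration required for complete inhibition of growth.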

Key:
Assay in all cases: DTP human tumour cell line panel, 48 h; in the data active = GI50 below about 0.43 µM; inactive = the rest
[1] = system: SF-268 CNS
[2] = system: SF-539 CNS
[3] = system: PC-3 prostate
[4] = system: CCRF-CEM leukemia
[5] = system: SW-620 colon
[6] = system: NCI-H460 lung
[7] = system: DU-145 prostate
[8] = system: IGROV1 ovarian
[9] = system: A549 NSCLC
[10] = system: NCI-H23 lung
[11] = system: A498 renal
[12] = system: BT-549 breast
[13] = system: SK-MEL-5 melanoma
[14] = system: MOLT-4 leukemia
[15] = system: SK-MEL-2 melanoma
[16] = system: CAKI-1 renal
[17] = system: SR leukemia
[18] = system: MDA-MB-435
[19] = system: UACC-257 melanoma
[20] = system: COLO 205 colon
[21] = system: EKVX NSCLC
[22] = system: NCI/ADR-RES ovarian
[23] = system: U251 CNS
[24] = system: SNB-19 CNS
[25] = system: OVCAR-4 ovarian
[26] = system: HCT-116 colon
[27] = system: NCI-H226 lung
[28] = system: 786-0 renal
[29] = system: M14 melanoma
[30] = system: TK-10 renal
[31] = system: LOX IMVI melanoma
[32] = system: HOP-62 NSCLC
[33] = system: T-47D breast
[34] = system: KM12 colon
[35] = system: MDA-MB-231 breast
[36] = system: OVCAR-3 ovarian
[37] = system: UO-31 renal
[38] = system: HCC-2998 colon
[39] = system: HL-60(TB) leukemia
[40] = system: HT29 colon
[41] = system: SNB-75 CNS
[42] = system: SF-295 CNS
[43] = system: SN12C renal
[44] = system: SK-MEL-28 melanoma
[45] = system: OVCAR-8 ovarian
[46] = system: HS 578T breast
[47] = system: K-562 leukemia
[48] = system: OVCAR-5 ovarian
[49] = system: HOP-92 NSCLC
[50] = system: UACC-62 melanoma
[51] = system: RXF 393 renal
[52] = system: MCF7 breast
[53] = system: SK-OV-3 ovarian
[54] = system: ACHN renal
[55] = system: HCT-15 colon

NCCNCCNCCN
> 100 µM: TGI [1] | TGI [2] | TGI [3] | TGI [4] | TGI [5] | TGI [6] | TGI [7] | TGI [8] | TGI [9] | TGI [10] | TGI [11] | TGI [12] | TGI [13] | TGI [14] | TGI [15] | TGI [16] | TGI [17] | TGI [18] | TGI [19] | TGI [20] | TGI [21] | TGI [22] | TGI [23] | TGI [24] | TGI [25] | TGI [26] | TGI [27] | TGI [28] | TGI [29] | TGI [30] | TGI [31] | TGI [32] | TGI [33] | TGI [34] | TGI [35] | TGI [36] | TGI [37] | TGI [38] | TGI [39] | TGI [40] | TGI [41] | TGI [42] | TGI [43] | TGI [44] | TGI [45] | TGI [46] | TGI [47] | TGI [48] | TGI [49] | TGI [50] | TGI [51] | TGI [52] | TGI [53] | TGI [54] | TGI [55]
inactive: GI50 [1] > 100 µM | GI50 [2] > 100 µM | GI50 [3] > 100 µM | GI50 [4] > 100 µM | GI50 [5] > 100 µM | GI50 [6] > 100 µM | GI50 [7] > 100 µM | GI50 [8] > 100 µM | GI50 [9] > 100 µM | GI50 [10] > 100 µM | GI50 [11] > 100 µM | GI50 [12] > 100 µM | GI50 [13] > 100 µM | GI50 [14] > 100 µM | GI50 [15] > 100 µM | GI50 [16] > 100 µM | GI50 [17] > 100 µM | GI50 [18] > 100 µM | GI50 [19] > 100 µM | GI50 [20] > 100 µM | GI50 [21] > 100 µM | GI50 [22] > 100 µM | GI50 [23] > 100 µM | GI50 [24] > 100 µM | GI50 [25] > 100 µM | GI50 [26] > 100 µM | GI50 [27] > 100 µM | GI50 [28] > 100 µM | GI50 [29] > 100 µM | GI50 [30] > 100 µM | GI50 [31] > 100 µM | GI50 [32] > 100 µM | GI50 [33] > 100 µM | GI50 [34] > 100 µM | GI50 [35] > 100 µM | GI50 [36] > 100 µM | GI50 [37] > 100 µM | GI50 [38] > 100 µM | GI50 [39] > 100 µM | GI50 [40] > 100 µM | GI50 [41] > 100 µM | GI50 [42] > 100 µM | GI50 [43] > 100 µM | GI50 [44] > 100 µM | GI50 [45] > 100 µM | GI50 [46] > 100 µM | GI50 [47] > 100 µM | GI50 [48] > 100 µM | GI50 [49] > 100 µM | GI50 [50] > 100 µM | GI50 [51] > 100 µM | GI50 [52] > 100 µM | GI50 [53] > 100 µM | GI50 [54] > 100 µM | GI50 [55] > 100 µM
